This is an account of results in patent publication US10196359B2, “2-alkyloxy benzene formyl arylamine compound and pharmaceutical use thereof” (FUDAN UNIVERSITY, priority 2014, dated 2019).

Read-outs that look alike come from different tables or passages of the source.

The target of the experiment is T1, Sphingomyelin Synthase 2 (SMS2) (Homo sapiens, UniProt Q8NHU3).
T1 construct: made in house; used as homogenate
T1 sequence (Q8NHU3 1-365): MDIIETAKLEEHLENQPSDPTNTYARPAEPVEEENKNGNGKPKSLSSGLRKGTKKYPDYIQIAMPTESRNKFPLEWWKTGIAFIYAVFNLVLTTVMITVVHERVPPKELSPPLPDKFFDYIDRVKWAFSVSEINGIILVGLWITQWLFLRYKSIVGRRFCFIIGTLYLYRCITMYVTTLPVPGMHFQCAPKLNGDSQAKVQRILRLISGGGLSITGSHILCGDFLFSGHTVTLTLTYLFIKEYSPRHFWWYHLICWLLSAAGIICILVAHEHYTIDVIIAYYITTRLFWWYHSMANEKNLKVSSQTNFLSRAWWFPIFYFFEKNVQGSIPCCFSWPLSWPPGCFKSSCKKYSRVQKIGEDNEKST
In words: In vitro inhibition of sphingomyelin synthase 2, HPLC fluorogenic quantitative detecting method (C6-NBD-ceramide to C6-NBD-SM, SMS2 high-expressed insect cell homogenate). The format is biochemical. As to conditions: for IC50: read-out: SMS2 Median Inhibitory Concentration IC50; for inhibition at 5 µM / inhibition at 10 µM / inhibition at 50 µM: read-out: inhibition rate. The source says:
The second aim of the present invention is to show the use of 2-alkoxy benzene formyl arylamines in preparing SMS small-molecule inhibitors. This invention evaluate SMS inhibitory activity of 2-alkoxy benzene formyl arylamines as scheme I through HPLC fluorogenic quantitative detecting method reported (Xiaodong Deng; Hong Sun; et al. Analytical Letters, 2012, 45:12, 1581-1589), which can make it possible to calculate the catalytic activity difference of SMS treated with inhibitors or not through content changes of NBD-ceramide and NBD-sphingomyelin.
9. The organic solvents were purchased from Shanghai Sinopharm Reagent Company; methanol is of HPLC grade; water is ultrapure water filtrated by Milli-Q pump and deionized and ultrafiltrated by 0.22 μm ultrafiltration membrane. Other biological supplies are purchased in domestic companies. 10. Preparation of SMS homogenate extraction buffer (Buffer1): (50 mM Tris hydrochloride, pH 7.4, 5% anhydrous sucrose, 1 mM ethylenediaminetetraacetic acid) 1.2114 g tris(hydroxymethyl)aminomethane hydrochloride (Tris-HCl) was dissolved in 100 ml distilled water. Then 84 ml 0.1 mol/L hydrochloric acid was added. Constant volume to 200 ml. Finally, 10 g sucrose and 58.45 mg EDTA were dissolved in the mixture. 11. Preparation of SMS test buffer […]: (100 mM Hepes, 30 mM MnCl2, 3% fatty acid free BSA): 1.1916 g 4-(2-hydroxyethyl)-1-peperazineethanesulfonic acid (Hepes), 0.2969 g MnCl2.4H2O and 0.3 g fatty acid free bovine serum albumin were dissolved in distilled water then constant volume to 50 ml. 12. Preparation of under tested compound solution: To each accurate weighed compound for 1˜2 mg, an appropriate amount of DMSO was added to formulate a stock solution of 6 mM precisely. To a certain volume of the DMSO stock solution of the test compound, the appropriate volume of DMSO was added to dilute the solution to the desired concentration. 13. SMS2 high-expressed insect cell homogenate was prepared by Xu Yanhui group from Institutes of Biomedical Sciences, Fudan University. Part 1 Activity Assay for Inhibition of 2-Alkoxy-Benzoyl Aromatic Amines to Sphingomyelin Synthase 2
250 μL tri-distilled water, 30 μL Buffer2, 4 μL SMS2 high-expressed insect cell homogenate (total protein content is 0.5 μg/μL) and 10 μL DMSO or DMSO solution of under tested compound were added to 1.5 mL eppendorf tube, vortex mixed for 30 seconds and then incubated in a 37° C. water bath for 0.5 h. 3 μL ethanol solution of DMPC (40 mM) and 3 μL ethanol solution of C6-NBD-Ceramide (1.16 mM) were added, vortex mixed for 30 seconds, and then incubate in a 37° C. water bath for 2.0 hours. To it 600 μL anhydrous ethanol was added vortex mixed for 1 minute and centrifuged 10 minutes in 10000 rpm and 600 μL supernatant was taken out and stored at 4° C. for HPLC analysis.
Using the same HPLC fluorogenic quantitative detecting method as reference (Xiaodong Deng; Hong Sun; et al. Analytical Letters, 2012, 45:12, 1581-1589) to analysize samples obtained above. Analysize and record peak areas of C6-NBD-SM (Asm) and C6-NBD-Ceramide (Acer) of each sample from blank group, positive control group (compound D2) and under tested compound group. The data were parallelly determined for 3 times. Calculate inhibition rate from the formula below: […]
The DMSO stock solution of under tested compound (6 mM) was diluted stepwise into five concentration gradient. 10 μL solution of each concentration was added into the trial system to prepare samples with the method mentioned in the first step of application case 12. The Asm values of the five concentration solution of tested compound were measured, and the inhibition rate under the five concentration were calculated and fitted to obtain median inhibitory concentration (IC50). Each compound was measured three parallel groups. SMS2 median inhibitory concentration of Scheme I-1˜I-60 are listed below in Table 1: […]

[1] abbreviates: five concentrations, three parallel groups, experimental value.

By inhibition is commonly meant the percentage by which the read-out fell short of the control. For the compound `Cc1ccccc1COc1ccccc1C(=O)Nc1cccnc1` [Scheme I-11, 2-((2-methyl)benzyloxy)-N-(pyridin-3-yl) benzamide], the IC50 is 1500 nM and the inhibition at 5 µM turned out to be 71.3%.

On to “2-((2,5-dichloro) benzyloxy)-N-(pyridin-3-yl) benzamide [Scheme I-33]”, for which the inhibition rate (at 10 μM) worked out at 87.9%. Under setting [1], the IC50 turned out to be 1000 nM.

Take “2-((2-chloro-5-fluoro) benzyloxy)-N-(pyridin-3-yl) benzamide [Scheme I-16]”: where the note is “at 5 μM”, the inhibition rate was determined as 75.7%. The IC50 under setting [1] amounted to 700 nM.

As to `Cc1ccc(Cl)cc1COc1ccccc1C(=O)Nc1cccnc1` [Scheme I-43, 2-((5-chloro-2-methyl)benzyloxy)-N-(pyridin-3-yl) benzamide], where the note is “at 5 μM”, the inhibition rate was determined as 74.8%. For the same compound, under setting [1], the IC50 worked out at 1100 nM.

As for `O=C(Nc1cccnc1)c1ccccc1OCc1ccccc1OCCCCCl` [Scheme I-34, 2-(2-(4-chlorobutoxy)benzyloxy)-N-(pyridin-3-yl) benzamide], the inhibition at 10 µM (at 10 μM) turned out to be 85.5%. The IC50 under setting [1] was 1400 nM.

For the setting “at 5 μM”, `Cc1c(Cl)cccc1COc1ccccc1C(=O)Nc1cccnc1` [Scheme I-44, 2-((3-chloro-2-methyl)benzyloxy)-N-(pyridin-3-yl) benzamide] had an inhibition rate of 47.0%. Also, the IC50 under setting [1] was 3800 nM.

The compound “2-((4-trifluoromethyl) benzyloxy)-N-(pyridin-3-yl) benzamide [Scheme I-20]” had an inhibition rate (at 10 μM) of 3.9%. Further, the IC50 under setting [1] was over 100000 nM.

On to `COc1ccc(COc2ccccc2C(=O)Nc2cccnc2)cc1` [Scheme I-5, 2-((4-methoxy)benzyloxy)-N-(pyridin-3-yl) benzamide], for which, for the setting “at 50 μM”, the inhibition at 50 µM is 23%. Besides, under setting [1], the IC50 was over 100000 nM.

Regarding “2-(4-bromo-benzyloxy)-N-(pyridin-3-yl) benzamide [Scheme I-9]”, where the note is “at 50 μM”, the inhibition rate is 14.7%. The IC50 under setting [1] was over 100000 nM.

For `O=C(Nc1cccnc1)c1ccccc1OCc1ccccc1C(F)(F)F` [Scheme I-42, 2-((2-trifluoromethyl)benzyloxy)-N-(pyridin-3-yl) benzamide], where the note is “at 5 μM”, the inhibition rate was 65.5%. The IC50 under setting [1] amounted to 2100 nM.

As to `O=C(Nc1cccnc1)c1ccccc1OCc1ccccc1F` [Scheme I-1, 2-(2-fluoro-benzyloxy)-N-(pyridin-3-yl) benzamide], the IC50 turned out to be 3500 nM and the inhibition at 5 µM worked out at 53.8%.

Consider `O=C(O)COc1ccccc1COc1ccccc1C(=O)Nc1cccnc1` [Scheme I-47, 2-(2-((2-(pyridin-3-ylcarbamoyl)phenoxy)methyl)phenoxy) acetic acid], for which the inhibition at 10 µM (at 10 μM) worked out at 7.4%. Further, the IC50 under setting [1] is over 100000 nM.

For `O=C(Nc1cccnc1)c1ccccc1OCc1cccc(F)c1` [Scheme I-2, 2-(3-fluoro-benzyloxy)-N-(pyridin-3-yl) benzamide], the IC50 is 1600 nM and the inhibition at 5 µM was 69.3%.

With “2-((2-nitro) benzyloxy)-N-(pyridin-3-yl) benzamide [Scheme I-12]”, the inhibition rate (at 50 μM) was determined as 35.5%. Moreover, the IC50 under setting [1] is over 50000 nM.

With `Cc1cccc(COc2ccccc2C(=O)Nc2cccnc2)c1` [Scheme I-10, 2-((3-methyl)benzyloxy)-N-(pyridin-3-yl) benzamide], the inhibition at 50 µM (at 50 μM) was determined as 69.5%. For the same compound, the IC50 under setting [1] was over 25000 nM.

Where the note is “at 5 μM”, “2-((5-chloro-hexyloxy) benzyloxy)-N-(pyridin-3-yl) benzamide [Scheme I-39]” gave an inhibition rate of 85.5%. The IC50 under setting [1] was determined as 500 nM.

As to “2-(2-cyano-benzyloxy)-N-(pyridin-3-yl) benzamide [Scheme I-6]”, the inhibition rate (at 50 μM) is 50.0%. In addition, the IC50 under setting [1] amounted to 31800 nM.

Consider `O=C(Nc1cccnc1)c1cc(Cl)ccc1OCc1cc(F)ccc1Cl` [Scheme I-55, 5-chloro-2-((2-chloro-5-fluoro)benzyloxy)-N-(pyridin-3-yl) benzamide], for which the inhibition at 10 µM (at 10 μM) was 31.7%. In addition, the IC50 under setting [1] was over 25000 nM.
